US20100003250A1, “(2-ARYL-7H-PYRROLO[2,3-D]PYRIMIDIN-4-YL)MORPHOLINE COMPOUNDS, THEIR USE AS MTOR KINASE AND PI3 KINASE INHIBITORS, AND THEIR SYNTHESES” (Wyeth, priority 2008, published 2010)
pIC50: −log10 of the molar value. Where two headings read alike, the source gives them in different places. Values belong to the compound of their own block, whether it stands above or below them.

Tests used:
PI3Kα = PI3Kα (Homo sapiens, UniProt P42336); experiment: PI3K-alpha fluorescence polarization assay; type: biochemical; conditions: 20 μM PIP2, 25 μM ATP; read-out: PI3Kα Median IC50
Sequence of PI3Kα (P42336 whole entry, species assumed): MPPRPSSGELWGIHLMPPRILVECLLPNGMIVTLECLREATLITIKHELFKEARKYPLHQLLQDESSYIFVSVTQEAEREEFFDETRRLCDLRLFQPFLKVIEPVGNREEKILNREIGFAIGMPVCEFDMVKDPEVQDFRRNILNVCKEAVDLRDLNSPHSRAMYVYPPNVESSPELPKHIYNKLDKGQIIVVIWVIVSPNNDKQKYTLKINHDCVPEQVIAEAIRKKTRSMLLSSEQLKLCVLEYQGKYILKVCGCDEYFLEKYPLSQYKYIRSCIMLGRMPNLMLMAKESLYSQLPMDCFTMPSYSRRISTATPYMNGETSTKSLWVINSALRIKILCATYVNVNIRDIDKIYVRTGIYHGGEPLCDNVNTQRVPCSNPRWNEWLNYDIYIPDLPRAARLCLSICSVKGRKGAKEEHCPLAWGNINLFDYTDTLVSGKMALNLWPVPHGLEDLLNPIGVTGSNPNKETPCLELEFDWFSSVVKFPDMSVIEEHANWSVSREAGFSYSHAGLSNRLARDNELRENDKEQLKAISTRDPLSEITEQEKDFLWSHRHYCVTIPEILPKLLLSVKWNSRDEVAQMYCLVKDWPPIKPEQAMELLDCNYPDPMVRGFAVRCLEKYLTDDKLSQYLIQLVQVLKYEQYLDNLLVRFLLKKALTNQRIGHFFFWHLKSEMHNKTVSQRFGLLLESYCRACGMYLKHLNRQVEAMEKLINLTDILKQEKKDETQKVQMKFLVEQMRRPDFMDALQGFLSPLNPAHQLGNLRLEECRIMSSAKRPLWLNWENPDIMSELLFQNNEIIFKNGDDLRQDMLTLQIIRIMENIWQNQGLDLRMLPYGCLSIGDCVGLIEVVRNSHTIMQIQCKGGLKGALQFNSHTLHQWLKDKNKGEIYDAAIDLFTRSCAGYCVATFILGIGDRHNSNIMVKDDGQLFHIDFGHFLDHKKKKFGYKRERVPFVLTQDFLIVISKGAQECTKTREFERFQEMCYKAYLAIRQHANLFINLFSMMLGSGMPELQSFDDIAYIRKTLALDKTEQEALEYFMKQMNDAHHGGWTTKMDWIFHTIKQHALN
Sequence of PI3Kα (P27986 whole entry partner, species assumed): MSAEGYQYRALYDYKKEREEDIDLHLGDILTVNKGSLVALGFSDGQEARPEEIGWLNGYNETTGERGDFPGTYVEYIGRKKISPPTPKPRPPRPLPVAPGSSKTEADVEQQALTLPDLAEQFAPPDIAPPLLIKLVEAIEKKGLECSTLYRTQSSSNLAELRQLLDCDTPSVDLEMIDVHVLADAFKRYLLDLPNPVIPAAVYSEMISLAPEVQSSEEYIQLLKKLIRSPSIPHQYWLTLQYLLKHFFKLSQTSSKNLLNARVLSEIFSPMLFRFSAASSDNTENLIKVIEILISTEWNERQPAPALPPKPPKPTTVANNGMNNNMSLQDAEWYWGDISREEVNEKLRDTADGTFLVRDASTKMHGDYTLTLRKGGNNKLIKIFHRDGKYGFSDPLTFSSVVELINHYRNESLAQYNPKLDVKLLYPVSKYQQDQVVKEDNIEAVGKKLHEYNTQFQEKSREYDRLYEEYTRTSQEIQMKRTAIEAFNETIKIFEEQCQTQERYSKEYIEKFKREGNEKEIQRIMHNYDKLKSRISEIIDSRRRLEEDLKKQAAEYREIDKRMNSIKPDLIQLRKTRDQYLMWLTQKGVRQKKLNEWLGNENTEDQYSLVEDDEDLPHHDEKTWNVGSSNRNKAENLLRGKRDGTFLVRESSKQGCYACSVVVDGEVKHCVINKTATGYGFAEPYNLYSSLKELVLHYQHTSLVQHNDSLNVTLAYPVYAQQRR

PI3Kγ = PI3Kγ (Homo sapiens, UniProt P48736); experiment: PI3K-gamma fluorescence polarization assay; type: biochemical; conditions: 20 μM PIP2, 25 μM ATP; read-out: PI3Kγ Median IC50
Sequence of PI3Kγ (P48736 whole entry, species assumed): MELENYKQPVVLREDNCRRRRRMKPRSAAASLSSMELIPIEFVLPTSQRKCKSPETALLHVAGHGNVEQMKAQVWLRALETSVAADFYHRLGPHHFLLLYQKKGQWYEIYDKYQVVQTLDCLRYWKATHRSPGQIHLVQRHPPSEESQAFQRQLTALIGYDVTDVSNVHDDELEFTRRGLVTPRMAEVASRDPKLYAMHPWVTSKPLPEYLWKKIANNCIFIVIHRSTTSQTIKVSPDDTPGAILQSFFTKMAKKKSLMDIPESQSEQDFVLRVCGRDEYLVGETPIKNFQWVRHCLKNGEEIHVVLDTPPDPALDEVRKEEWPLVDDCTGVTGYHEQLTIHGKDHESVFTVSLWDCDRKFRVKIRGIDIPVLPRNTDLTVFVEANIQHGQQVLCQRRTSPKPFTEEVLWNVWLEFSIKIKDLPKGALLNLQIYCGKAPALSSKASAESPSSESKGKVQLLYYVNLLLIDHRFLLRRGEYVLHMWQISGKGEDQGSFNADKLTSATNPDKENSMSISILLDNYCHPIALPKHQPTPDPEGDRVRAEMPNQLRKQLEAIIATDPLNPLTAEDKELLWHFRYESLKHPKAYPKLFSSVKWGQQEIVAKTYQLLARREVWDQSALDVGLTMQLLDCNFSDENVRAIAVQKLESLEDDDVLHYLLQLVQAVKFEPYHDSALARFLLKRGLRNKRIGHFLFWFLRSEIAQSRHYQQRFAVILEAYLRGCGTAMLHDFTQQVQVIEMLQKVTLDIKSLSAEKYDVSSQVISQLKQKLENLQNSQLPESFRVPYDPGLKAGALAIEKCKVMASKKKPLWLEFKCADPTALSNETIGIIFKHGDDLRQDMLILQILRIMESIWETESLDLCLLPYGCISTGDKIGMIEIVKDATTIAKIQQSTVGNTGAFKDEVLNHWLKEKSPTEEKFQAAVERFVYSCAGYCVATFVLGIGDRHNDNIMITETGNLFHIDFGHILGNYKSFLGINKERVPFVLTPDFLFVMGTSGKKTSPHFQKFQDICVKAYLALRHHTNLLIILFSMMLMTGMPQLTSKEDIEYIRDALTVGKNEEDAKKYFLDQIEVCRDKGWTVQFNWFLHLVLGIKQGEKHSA
How it was run: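 Enzyme preincubated with compound in 20 mM HEPES pH 7.5, 2 mM MgCl2, 0.05% CHAPS, 0.01% βME; reaction started with substrate giving 20 μM diC8 PIP2 and 25 μM ATP final, run 30-60 min at room temperature. Stopped with TAMRA-labelled PIP3 detector probe plus GST-GRP; PIP3 formation read by fluorescence polarization after 90-110 min.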

mTOR Kinase (FLAG-TOR) = target: T1, mTOR Kinase (FLAG-TOR) (Homo sapiens, UniProt P42345); experiment: mTOR kinase assay, purified enzyme, DELFIA format; type: biochemical; conditions: 100 μM ATP, 1.25 μM His6-S6K; read-out: mTOR Kinase Median IC50
T1 construct: FLAG

[1] = system: human tumor xenograft models; conditions: cited from earlier work
[2] = system: acute lymphoblastic leukemia; conditions: in vivo; cited from earlier work
mTOR = mTOR (Homo sapiens, UniProt P42345); conditions: read-out: mTOR IC50; mTOR complexes / mTOR enzymes; cited from earlier work

- pIC50 (PI3Kα): 5.72
- pIC50 (PI3Kγ): 4.92
- pIC50 (mTOR Kinase (FLAG-TOR)): 7.33
Compound: CCn1cc(CN(C)C)c2c(N3CCOCC3)nc(-c3ccc(NC(=O)NC)cc3)nc21 [Compound 97, 1-(4-{5-[(dimethylamino)methyl]-7-ethyl-4-morpholin-4-yl-7H-pyrrolo[2,3-d]pyrimidin-2-yl}phenyl)-3-methylurea]

Compound: Cn1c(=O)n(-c2ccc(C(C)(C)C#N)cc2)c2c3cc(-c4cnc5ccccc5c4)ccc3ncc21 [NVP-BEZ-235, 2-methyl-2-(4-(3-methyl-2-oxo-8-(quinolin-3-yl)-2,3-dihydro-1H-imidazo[4,5-c]quinolin-1-yl)phenyl)propanenitrile]
- activity in human tumor xenograft models ([1]; prostrate (PC-3) and glioblastoma (U-87)): demonstrated activity

Compound: Oc1cccc(-c2nc(N3CCOCC3)c3oc4ncccc4c3n2)c1 [PI103, 3-(4-(4-morpholinyl)pyrido[3′,2′:4,5]furo[3,2-d]pyrimidin-2-yl)phenol]
- activity in human tumor xenograft models ([1]; I.P. dosing in mice, U87MG, PC3, MDA-MB-468, MDA-MB-435, HCT 116, SKOV3, IGROV-1): demonstrated activity

Compound: CO[C@H]1C[C@@H]2CC[C@@H](C)[C@@](O)(O2)C(=O)C(=O)N2CCCC[C@H]2C(=O)O[C@H]([C@H](C)C[C@@H]2CC[C@@H](OC(=O)C(C)(CO)CO)[C@H](OC)C2)CC(=O)[C@H](C)/C=C(\C)[C@@H](O)[C@@H](OC)C(=O)[C@H](C)C[C@H](C)/C=C/C=C/C=C/1C [Torisel]
- activity in NOS/SCID xenograft mouse model of acute lymphoblastic leukemia [2]: active

Compound: FC(F)c1nc2ccccc2n1-c1nc(N2CCOCC2)nc(N2CCOCC2)n1 [ZSTK474, 2-(2-difluoromethylbenzoimidazol-1-yl)-4,6-dimorpholino-1,3,5-triazine]
- tumor growth in mouse human xenograft cancer models ([1]; chronic oral administration, 400 mg/kg, A549, PC-3, WiDr): completely inhibited growth
- pIC50 (mTOR): < 5.00
